Legend:
[1] = tested on: normal human control plasma; assay: activated partial thromboplastin time (aPTT) clotting assay
Method: The effect of the nanocomplexes on a physiologic coagulation pathway was tested using a standard activated partial thromboplastin time (aPTT) clotting assay, which is also used to monitor heparin levels of patients. This assay measures the amount of time needed for a plasma sample to form a clot in vitro when the contact pathway of coagulation is triggered by addition of an exogenous aPTT reagent. For the assay, varying concentrations of nanocomplexes or free heparin were added to 50 μl of APTT reagent (Thermo Scientific) at 37° C. for 3 minutes. Subsequently, 50 μl of 25 mM CaCl2 (Sigma) pre-incubated at 37° C. were added to samples and clotting was monitored via absorbance at 605 nm with a SpectraMAX Plus spectrophotometer ([…]).

mice = assay: Tail bleeding time after tail transection; type: in vivo; conditions: 200 U/kg intravenously
Method: To assess the effect of nanocomplex administration on bleeding tail transection on mice was performed five minutes after they were treated intravenously with nanocomplexes. Specifically, mice (n=5-7 per condition) were anesthetized with isofluorane gas and administered nanocomplexes (200 U/kg, n=5), heparin (200 U/kg, n=7), or PBS control (n=5). After 5 minutes, 2 mm of distal mouse tail was removed by scalpel. Bleeding time was determined by lightly dabbing the tail with kimwipe tissues (Kimtech) until bleeding fully ceased for at least 1 minute. All experimental protocols involving animals were approved by the MIT Committee on Animal Care.

[2] = tested on: thrombin generation in human plasma; assay: real-time thrombin generation assay in human plasma
Method: To further analyze the anticoagulant mechanism of the nanocomplexes, we performed real-time thrombin generation assays in human plasma. For this assay, varying concentrations of nanocomplexes or free heparin were added to 20 μL of control normal human plasma (Thermo Scientific). Real time thrombin generation was measured using the Technothrombin TGA kit (Technoclone) using the RD reagent according to manufacturer instructions. The fluorescence was monitored using a TECAN Infinite M200 Pro and thrombin generation was calculated using the corresponding Excel evaluation software provided by Technoclone.

[3] = tested on: thromboplastin-induced model of pulmonary thromboembolism; assay: thromboplastin-induced model of pulmonary thromboembolism; type: in vivo; conditions: mice
Method: To evaluate the ability of nanocomplexes to prevent thrombosis in vivo, a thromboplastin-induced model of pulmonary thromboembolism was utilized. […] For the pulmonary embolism assay, bovine fibrinogen (Sigma) was reacted with near-infrared fluorochromes (Vivotag-750-NHS, Perkin-Elmer) at a 2:1 fluorophore:protein molar ratio in PBS for 1 hour and purified by column centrifugation (100 kDa cutoff, Millipore) to remove unreacted fluorophores. Ampules of thromboplastin from rabbit brain (Sigma, #44213) were reconstituted with 2 mL of PBS each.
To ascertain the initial dosing ranges for the nanocomplexes, mice were dosed with thromboplastin and escalating doses of free heparin (40 U/kg, 100 U/kg and 200 U/kg heparin). Deposition of VT750-fibrin in the lungs of the mice was quantified using ex vivo infrared imaging. […] Accordingly, the dose of nanocomplexes corresponding to heparin doses of 200 U/kg was chosen for subsequent experiments.
Mice (n=5 per condition) were anesthetized with isofluorane gas and co-administered nanocomplexes (200 U/kg), free heparin (200 U/kg), or PBS control and 1 nmol of VT750-fibrinogen via tail vein injection. After 5 minutes, mice were injected with thromboplastin (2 uL/g). After 30 minutes, mice were euthanized with CO2 and the lungs were harvested and imaged on the LI-COR Odyssey Infrared Imaging System. Fibrin deposition was then quantified using ImageJ software. For histologic analysis, paraffin-embedded sections of lungs were prepared (Koch Institute Histology Core). Lungs were first fixed by incubating in 4% paraformaldehyde overnight. Hematoxylin and eosin […] staining of lung sections was used to visualize clots in the lungs.

- increase of mean bleeding time over PBS control (mice): greater than 280%
- mean bleeding time (mice; tail transection after 5 minutes): ~9.2 min
Substance: heparin [free heparin]
- aPTT clotting time ([1]; 0.4 U/mL): ~44 s
- aPTT clotting time relative to control ([1]; 0.4 U/mL): ~1.5 × of control
- aPTT clotting time ([1]; 0.8 U/mL): ~44 s
- aPTT clotting time relative to control ([1]; 0.8 U/mL): ~1.5 fold over control
- aPTT clotting time ([1]; 2 U/mL): ~136 s
- aPTT clotting time relative to control ([1]; 2 U/mL): ~5 fold over control
- aPTT clotting time relative to control ([1]; 2 U/mL, listed as heparin): ~5 x of control
- reduction of ETP ([2]; 1.6 U/mL): ~80%
- lag time (time to initial thrombin formation) ([2]; increasing concentrations): prolonged in a dose-dependent manner
- VT750-fibrin deposition in the lungs ([3]; 40 U/kg, with thromboplastin): did not significantly reduce
- VT750-fibrin deposition in the lungs ([3]; 100 U/kg, with thromboplastin): did not significantly reduce
- histological analysis of lung microvessels (hematoxylin and eosin) ([3]; 200 U/kg, thromboplastin 2 uL/g): largely patent
- reduction of VT750-fibrin deposition in the lungs ([3]; 200 U/kg, with thromboplastin): more than two-fold

Source: patent US20140364368A1, “STIMULUS RESPONSIVE NANOCOMPLEXES AND METHODS OF USE THEREOF” (MASSACHUSETTS INSTITUTE OF TECHNOLOGY, priority 2013, published 2014)
